Columns and labels:
[1] = system: BALB/c mice; assay: In vivo adjuvant study: Env-specific serum IgG2a ELISA; conditions: vaccinated day 0 and 28, sera 6-7 d after 2nd vaccination
Excerpt: (§1) In phosphate-buffered saline (PBS), 25 micrograms gp120dV2EnvSF162 antigen (recombinant gp120 protein derived from sequence of HIV-1 strain SF162—the V2 domain was deleted; Pharm Res. 2004 Dec. 21(12):2148-52) as mixed with 50 microliters of MF59 adjuvant, followed the by the addition of 0, 1, 5, or 25 micrograms of a small molecule immune potentiator (SMIP) and adjusted to 100 microliters with PBS. 50 microliters of the solution was subsequently injected into both the left and right tibialis anterior muscles of female BALB/c mice (Day 0), for a total volume of 100 microliters per mouse. Four weeks later (Day 28), 50 microliters of the solution was again injected into both the left and right tibialis anterior muscles of the mouse. Seven days after the second vaccination ([…]), serum samples were collected, and a day later (day 35) spleens were removed. Serum samples were assayed by Env-specific serum IgG2a ELISA and Env-specific serum IgG1 ELISA. Spleen samples were assayed by Env-specific, cytokine-producing splenic CD4 and CD8 T cells.
(§2) BALB/c mise were immunized 2× with HIV gp120 formulated in MF59 +/− the indicated SMIPs (25 μg/ml). CpG 1826 (25 μg/ml) was used as a positive control. […] post-second serum was collected from the immunized mice and the anti-gp120-specific serum IgG2a (FIG. 4A) and IgG1 (FIG. 4B) geometric mean titers (GMT) were determined. In addition, spleens were also harvested from the immunized mice and ex vivo anti-gp120-specific T cell responses (FIG. 4C) were determined by intracellular cytokine staining for IL-2 and IFN-g. Results are percentage of antigen-specific T cells expressing the indicated cytokine.

[2] = system: BALB/c mice; assay: In vivo adjuvant study: Env-specific serum IgG1 ELISA; conditions: vaccinated day 0 and 28, sera 6-7 d after 2nd vaccination
Excerpt: as §1, §2

[3] = system: BALB/c mice; assay: In vivo adjuvant study: Env-specific cytokine-producing splenic CD4 and CD8 T cells; conditions: spleens 6-7 d after 2nd vaccination
Excerpt: as §1, §2

[4] = Pope et al. Cellular Immunology 162: 333-339 (1995); cited from earlier work
[5] = 1 μg added to gp120dV2/MF59 base vaccine
[6] = 5 μg added to gp120dV2/MF59 base vaccine
[7] = 25 μg added to gp120dV2/MF59 base vaccine

Compound | Env-spec IgG2a titer, Geo mean [1, 5] | Env-spec IgG2a titer, Geo mean [1, 6] | Env-spec IgG2a titer, Geo mean [1, 7] | Env-spec IgG1 titer, Geo mean [2, 5] | Env-spec IgG1 titer, Geo mean [2, 6] | Env-spec IgG1 titer, Geo mean [2, 7] | Env-spec CD4 (%) IFN-γ+ [3, 5] [%] | Env-spec CD4 (%) IL-2+ [3, 5] [%] | Env-spec CD8 (%) IFN-γ+ [3, 5] [%] | Env-spec CD8 (%) IL2+ [3, 5] [%] | Env-spec CD4 (%) IFN-γ+ [3, 6] [%] | Env-spec CD4 (%) IL-2+ [3, 6] [%] | Env-spec CD8 (%) IFN-γ+ [3, 6] [%] | Env-spec CD8 (%) IL2+ [3, 6] [%] | Env-spec CD4 (%) IFN-γ+ [3, 7] [%] | Env-spec CD4 (%) IL-2+ [3, 7] [%] | Env-spec CD8 (%) IFN-γ+ [3, 7] [%] | Env-spec CD8 (%) IL2+ [3, 7] [%] | concentration causing useful production of TNF-α [4] [µM]
CCCSc1nc2c(N)nc3ccccc3c2n1CC(C)C [Example 11, 1-(2-methylpropyl)-2-(propylthio)-1H-imidazo[4,5-c]quinolin-4-amine] | 512 | 2922 | 6507 | 35177 | 33477 | 34199 | 0.04 | 0.17 | 0.08 | 0.17 | 0.04 | 0.42 | 0.19 | 0.22 | 0.04 | 0.42 | 0.18 | 0.22 | –
ODN-1826 [reference compound] | – | – | 201306 | – | – | 30188 | – | – | – | – | – | – | – | – | 0.32 | 0.47 | 0.15 | 0.12 | –
CCCN(C)c1nc2c(N)nc3ccccc3c2n1CC(C)(C)O [Example 19, 1-{4-amino-2-[methyl(propyl)amino]-1H-imidazo[4,5-c]quinolin-1-yl}-2-methylpropan-2-ol] | 1215 | 10104 | 18733 | 30536 | 29502 | 38255 | 0.07 | 0.14 | 0.21 | 0.14 | 0.04 | 0.40 | 0.35 | 0.37 | 0.29 | 0.76 | 0.07 | 0.10 | –
C=CCn1c(=O)n([C@@H]2O[C@H](CO)[C@@H](O)[C@H]2O)c2nc(N)[nH]c(=O)c21 [Loxoribine] | – | – | – | – | – | – | – | – | – | – | – | – | – | – | – | – | – | – | 300

Reference: US20130096103A1, “IMIDAZOQUINOLINE COMPOUNDS” (NOVARTIS VACCINES & DIAGNOSTICS, INC., priority 2004, published 2013)
